The source of these data is patent US11279683B2, “Thiophene derivatives as antiviral agents” (ENYO PHARMA, priority 2016, dated 2022).

By pIC50 is commonly meant the IC50 on a negative log10 scale, so that one unit is a factor of ten. A low value points to a high IC50.

Structures are written as SMILES. pIC50: −log10 of the molar value.

The test has as its system H1N1 (influenza A/New Caledonia/20/99). Kind of test: microbe, parasite or virus in culture. In kind it is cell-based. To be noted: Influenza A virus, H1N1, A549, 48 h.
`O=C(Nc1ccc(Cl)cc1)c1c(NC(=O)C2CCCCC2C(=O)O)sc2c1CCCC2` (stereo not drawn) [Compound 61, 2-[[3-[(4-Chlorophenyl)carbamoyl]-4,5,6,7-tetrahydrobenzothiophen-2-yl]carbamoyl]cyclohexane-cis-carboxylic acid] had a pIC50 of 5.07.
The result for `O=C(NCc1ccccc1)c1c(NC(=O)C2CCCCC2C(=O)O)sc2c1CCC2` (stereo not drawn) [Compound 63, 2-[[3-(Benzylcarbamoyl)-5,6-dihydro-4H-cyclopenta[b]thiophen-2-yl]carbamoyl]cyclohexanecarboxylic acid] reads 4.67; that for `COc1cccc(NC(=O)c2c(NC(=O)C3CCCCC3C(=O)O)sc3c2CCC3)c1` (stereo not drawn) [Compound 64, 2-[[3-[(3-Methoxyphenyl)carbamoyl]-5,6-dihydro-4H-cyclopenta[b]thiophen-2-yl]carbamoyl]cyclohexanecarboxylic acid], 4.85.
The result for `O=C(NC1CCCCC1)c1c(NC(=O)C2CCCCC2C(=O)O)sc2c1CCC2` (stereo not drawn) [Compound 65, 2-[[3-(Cyclohexylcarbamoyl)-5,6-dihydro-4H-cyclopenta[b]thiophen-2-yl]carbamoyl]cyclohexanecarboxylic acid] reads 4.75; that for `Cc1ccc(NC(=O)c2c(NC(=O)C3CCCCC3C(=O)O)sc3c2CCC3)cc1` (stereo not drawn) [Compound 66, 2-[[3-(p-Tolylcarbamoyl)-5,6-dihydro-4H-cyclopenta[b]thiophen-2-yl]carbamoyl]cyclohexanecarboxylic acid], 4.93; that for `Cc1cccc(NC(=O)c2c(NC(=O)C3CC=CCC3C(=O)O)sc3c2CCCC3)c1` (stereo not drawn) [Compound 68, 6-[[3-(m-Tolylcarbamoyl)-4,5,6,7-tetrahydrobenzothiophen-2-yl]carbamoyl]cyclohex-3-ene-1-carboxylic acid], 4.93.
The result for `Cc1cccc(NC(=O)c2c(NC(=O)C3CCCCC3C(=O)O)sc3c2CCCC3)c1` (stereo not drawn) [Compound 69, 2-[[3-(m-Tolylcarbamoyl)-4,5,6,7-tetrahydrobenzothiophen-2-yl]carbamoyl]cyclohexanecarboxylic acid] reads 4.86; that for `CCc1c(C)sc(NC(=O)C2CCCCC2C(=O)O)c1C(=O)Nc1cccc(Cl)c1` (stereo not drawn) [Compound 70, 2-[[3-[(3-Chlorophenyl)carbamoyl]-4-ethyl-5-methyl-2-thienyl]carbamoyl]cyclohexanecarboxylic acid], 4.83; that for `O=C(Nc1ccc(Cl)cc1)c1ccsc1NC(=O)C1C2CCC(CC2)C1C(=O)O` (stereo not drawn) [Compound 71, 2-[[3-[(4-Chlorophenyl)carbamoyl]-2-thienyl]carbamoyl]bicyclo[2.2.2]octane-3-carboxylic acid], 4.91.
With `CC(C)c1cc(C(=O)Nc2ccccc2)c(NC(=O)C2CCCCC2C(=O)O)s1` (stereo not drawn) [Compound 72, 2-[[5-Isopropyl-3-(phenylcarbamoyl)-2-thienyl]carbamoyl]cyclohexanecarboxylic acid], the pIC50 is 5.00.
Regarding `CCc1c(C)sc(NC(=O)C2CCCCC2C(=O)O)c1C(=O)Nc1ccccc1` (stereo not drawn) [Compound 73, 2-[[4-Ethyl-5-methyl-3-(phenylcarbamoyl)-2-thienyl]carbamoyl]cyclohexanecarboxylic acid], the negative logarithm of the IC50 (pIC50) is 4.61.
For `O=C(Nc1ccccc1)c1c(NC(=O)C2CCCCC2C(=O)O)sc2c1CCC2` (stereo not drawn) [Compound 74, 2-[[3-(Phenylcarbamoyl)-5,6-dihydro-4H-cyclopenta[b]thiophen-2-yl]carbamoyl]cyclohexanecarboxylic acid] the value was 4.91.
The result for `Cc1nccn1CC(=O)Nc1sc2c(c1C(=O)Nc1ccc(Cl)cc1)CCCC2` [Compound 75, N-(4-Chlorophenyl)-2-[[2-(2-methylimidazol-1-yl)acetyl]amino]-4,5,6,7-tetrahydrobenzothiophene-3-carboxamide] reads 4.77; that for `COc1ccc(NC(=O)c2c(NC(=O)C3CCCCC3C(=O)O)sc3c2CCC3)cc1` (stereo not drawn) [Compound 76, 2-[[3-[(4-Methoxyphenyl)carbamoyl]-5,6-dihydro-4H-cyclopenta[b]thiophen-2-yl]carbamoyl]cyclohexanecarboxylic acid], 4.85; that for `O=C(Nc1cccc(C(F)(F)F)c1)c1c(NC(=O)C2CCCCC2C(=O)O)sc2c1CCC2` (stereo not drawn) [Compound 77, 2-[[3-[[3-(Trifluoromethyl)phenyl]carbamoyl]-5,6-dihydro-4H-cyclopenta[b]thiophen-2-yl]carbamoyl]cyclohexanecarboxylic acid], 5.17.
`O=C(Cc1cnccn1)Nc1sc2c(c1C(=O)Nc1ccc(Cl)cc1)CCC2` [Compound 78, N-(4-chlorophenyl)-2-[(2-pyrazin-2-ylacetyl)amino]-5,6-dihydro-4H-cyclopenta[b]thiophene-3-carboxamide]: the negative-log IC50 (pIC50) was 6.00.
The result for `NS(=O)(=O)N1CCCCC1C(=O)Nc1sc2c(c1C(=O)Nc1ccc(Cl)cc1)CCC2` (stereo not drawn) [Compound 80, N-[3-[(4-chlorophenyl)carbamoyl]-5,6-dihydro-4H-cyclopenta[b]thiophen-2-yl]-1-sulfamoyl-piperidine-2-carboxamide] reads 5.65.
The result for `O=C(CC1CCOCC1)Nc1sc2c(c1C(=O)Nc1ccc(Cl)cc1)CCC2` [Compound 81, N-(4-chlorophenyl)-2-[(2-tetrahydropyran-4-ylacetyl)amino]-5,6-dihydro-4H-cyclopenta[b]thiophene-3-carboxamide] reads 5.41; that for `NC(=O)N1CCOCC1C(=O)Nc1sc2c(c1C(=O)Nc1ccc(Cl)cc1)CCC2` (stereo not drawn) [Compound 82, N3-[3-[(4-chlorophenyl)carbamoyl]-5,6-dihydro-4H-cyclopenta[b]thiophen-2-yl]morpholine-3,4-dicarboxamide], 5.36; that for `NS(=O)(=O)N1CCCC(C(=O)Nc2sc3c(c2C(=O)Nc2ccc(Cl)cc2)CCC3)C1` (stereo not drawn) [Compound 83, N-[3-[(4-chlorophenyl)carbamoyl]-5,6-dihydro-4H-cyclopenta[b]thiophen-2-yl]-1-sulfamoyl-piperidine-3-carboxamide], 5.30.
The result for `CC(=O)N1CCC1C(=O)Nc1sc2c(c1C(=O)Nc1ccc(Cl)cc1)CCC2` (stereo not drawn) [Compound 84, 1-acetyl-N-[3-[(4-chlorophenyl)carbamoyl]-5,6-dihydro-4H-cyclopenta[b]thiophen-2-yl]azetidine-2-carboxamide] reads 4.53; that for `CS(=O)(=O)N[C@@H]1CCCC[C@@H]1C(=O)Nc1sc2c(c1C(=O)Nc1ccc(Cl)cc1)CCC2` [Compound 85, N-(4-chlorophenyl)-2-[[(1S,2R)-2-(methanesulfonamido)cyclohexanecarbonyl]amino]-5,6-dihydro-4H-cyclopenta[b]thiophene-3-carboxamide], 5.25; that for `CS(=O)(=O)N1CCOC(C(=O)Nc2sc3c(c2C(=O)Nc2ccc(Cl)cc2)CCC3)C1` (stereo not drawn) [Compound 86, N-[3-[(4-chlorophenyl)carbamoyl]-5,6-dihydro-4H-cyclopenta[b]thiophen-2-yl]-4-methylsulfonyl-morpholine-2-carboxamide], 5.20.
Compound `NS(=O)(=O)N1CCOC(C(=O)Nc2sc3c(c2C(=O)Nc2ccc(Cl)cc2)CCC3)C1` (stereo not drawn) [Compound 87, N-[3-[(4-chlorophenyl)carbamoyl]-5,6-dihydro-4H-cyclopenta[b]thiophen-2-yl]-4-sulfamoyl-morpholine-2-carboxamide] showed a pIC50 of 5.17.
